Experimental data as given in patent publication US8563567B2, “Substituted heterocyclic compounds” (ArQule, Inc., priority 2009, dated 2013).

Columns and labels:
Abl (T315I) = Abl (T315I) (Homo sapiens, UniProt P00519, T315I); experiment: Abl kinase activity assay (fluorescent ELISA, AblTide substrate); format: biochemical
Protocol: The disclosed compounds were assayed for their ability to inhibit the activity of ABL kinase. Nunc Maxisorb plates are coated with streptavidin by overnight incubation with 100 μL per well of 1 μg/mL streptavidin in DPBS. Prior to the start of the experiment, the plates are washed with TBST (3×200 μL) and blocked for at least 3 hours by adding 150 μL of 5% BSA/TBST. The plates are washed with TBST (3×200 μL/well) and left dry immediately before the capture step.
The test articles and controls (Gleevec) are prepared using the following assay buffer @ 10× desired final concentration (50 mM Tris pH 7.0, 0.02 mg/ml BSA, 10 mM MgCl2, 0.1 mM Na3VO4, 1 mM EGTA, 0.01% NP-40, 1 mM DTT in 10% glycerol/water). In a reaction plate are added rapidly 5 μL test article (or control) and 30 μL ABL or ABL T315I (0.089 nM final concentration, in the above buffer). The plate is incubated for 20 minutes. To the reaction plate is added ATP (100 μM final concentration) and AblTide (128 nM final concentration) in a volume of 15 μL. The plate is incubated at room temperature for one hour.
From the reaction plate, 40 μL is transferred to the streptavidin coated plate. The capture plate is incubated at room temperature for 30 minutes then washed 3× with TBST. To the capture plate is added 100 μL/well of Cell Signaling anti-phospho tyrosine at a dilution of 1:3000 in 2% BSA/TBST. The plate is incubated for two hours at room temperature then washed 3× with TBST. To the capture plate is added 100 μL/well of Alkaline Phosphatase Tagged Goat anti Mouse Antibody at a dilution of 1:4000 in 2% BSA/TBST. The plate is incubated for one hour at room temperature then washed 3× with TBST.
The fluorescent readout was initiated by the addition of 100 μL/well of Attophos reagent (6 mg/10 mL). The reading was done on the Perkin Elmer Envision system.

FGFR2 (N549H) = target: T1, FGFR2 (N549H) (Homo sapiens, UniProt P21802, N549H); experiment: FGFR2 kinase activity assay (fluorescent ELISA); format: biochemical
T1 construct: purchased Millipore 14-742
T1 sequence (P21802 22-821 N549H): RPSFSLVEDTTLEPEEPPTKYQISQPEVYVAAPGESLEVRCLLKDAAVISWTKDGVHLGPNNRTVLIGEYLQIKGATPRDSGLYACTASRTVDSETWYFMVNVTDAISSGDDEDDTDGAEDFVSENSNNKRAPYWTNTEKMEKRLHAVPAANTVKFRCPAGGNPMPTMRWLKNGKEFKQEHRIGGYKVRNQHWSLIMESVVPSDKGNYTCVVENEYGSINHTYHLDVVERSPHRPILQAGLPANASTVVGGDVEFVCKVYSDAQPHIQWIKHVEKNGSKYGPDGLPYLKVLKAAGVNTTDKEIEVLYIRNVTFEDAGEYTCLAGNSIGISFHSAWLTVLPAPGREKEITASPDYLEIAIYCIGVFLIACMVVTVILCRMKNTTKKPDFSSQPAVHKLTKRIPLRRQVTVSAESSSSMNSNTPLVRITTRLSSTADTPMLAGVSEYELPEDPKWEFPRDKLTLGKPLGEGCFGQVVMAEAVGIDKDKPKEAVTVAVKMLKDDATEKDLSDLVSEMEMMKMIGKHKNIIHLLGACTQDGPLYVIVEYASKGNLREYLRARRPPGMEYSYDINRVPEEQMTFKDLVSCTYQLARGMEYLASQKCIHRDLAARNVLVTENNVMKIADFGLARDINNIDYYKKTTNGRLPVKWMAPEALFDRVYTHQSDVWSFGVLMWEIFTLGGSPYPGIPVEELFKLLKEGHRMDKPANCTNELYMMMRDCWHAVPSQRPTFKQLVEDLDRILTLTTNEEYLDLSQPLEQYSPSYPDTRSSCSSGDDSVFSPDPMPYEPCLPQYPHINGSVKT
Protocol: The enzymatic assays described herein are conducted according to the following procedures from commercially available reagents. In one, non limiting, example, a fluorescent ELISA assay is used to identify and characterize inhibitors of FGFR2 kinase as described herein. This heterogeneous assay utilizes a biotinylated peptide with a tyrosine motif as a substrate and an anti-phospho-tyrosine antibody to measure phosphorylation of the substrate. The reaction is initiated by adding the test compound, 37 μM Pyk2 substrate (Midwest Biotech, Cat. # MBT2383), 12.5 μM ATP (Roche, Cat. #11 140 965 001) and 0.5 μM FGFR2 enzyme (Millipore, Cat. #14-742) sequentially to a non-binding polypropylene V-well plate. All reagents are in an assay buffer consisting of: 50 mM Tris-HCL, 0.02 mg/ml BSA, 10 mM MgCl2, 0.1 mM Na3VO4, 1 mM EGTA, 75 μM ATP, 0.01% NP-40, 2 mM DTT and 10% glycerol. The reaction is incubated for 60 minutes. As the reaction proceeds, FGFR2 phosphorylates tyrosines in the peptide. The reaction mixture is then moved to a blocked streptavidin-coated Nunc Maxisorb plate (coated with 100 ng streptavidin from Pierce (Cat. #15-124) per well), allowing for the capture of the biotinylated peptide. Peptides are captured for 30 minutes at room temperature, the phosphorylation of peptides continues during this phase. The reaction is stopped by washing the streptavidin-coated plate 6 times with TBST. Phosphorylated peptide is detected by adding anti-phospho-tyrosine antibody (Cell Signaling, Cat. #9411, diluted 1:3000) to the streptavidin-coated plate. Unbound anti-phospho-tyrosine antibody is removed by washing the streptavidin-coated plate 6 times with TBST. Secondary detection is performed using alkaline phosphatase tagged goat anti-mouse antibody (Pierce, Cat. #31320, diluted 1:4000) for one hour. Unbound secondary antibody is removed by washing the streptavidin-coated plate 6 times with TBST. The fluorescent readout is initiated by adding to the streptavidin-coated plate Promega Attophos substrate (Promega, Cat. # S1000, dilution=6 mg/10 ml), which, when dephosphorylated by alkaline phosphatase, emits a fluorescent signal of 595 nm in wavelength when excited by a signal of 400 nm in wavelength. The reading of the 595 nm signal is done on the Perkin Elmer Envision system. Compounds which prevent FGFR2 from phosphorylating the peptide result in a lower fluorescent signal. The 595 nm fluorescent signal is directly proportional to the activity of FGFR2. Thus, the inhibition of FGFR2 by compounds is monitored by the decrease in the 595 nm fluorescent signal.

DLD-1 = experiment: MTS assay, DLD-1; format: cell-based; conditions: Homo sapiens, DLD-1, 72 h
Protocol: (§1) Cells were maintained at 37° C., 5% CO2 in RPMI media supplemented with 1% fetal bovine serum, penicillin/streptomycin and fungizone (Invitrogen). Cells were seeded into 96-well tissue culture plates at 3000 per well and cultured at 37° C. for 18 h. Test compounds were dissolved and diluted to 300× in DMSO then diluted 1:40 in DMEM. Cells were incubated with test compounds for 72 hours followed by incubation with tetrazolium compound (3-(4,5-dimethylthiazol-2-yl)-5-(3-carboxymethoxyphenyl)-2-(4-sulfophenyl)-2H-tetrazolium, inner salt; MTS) and the electron coupling reagent, phenazine methosulfate (PMS) for 4 hours. […] The ability of compounds to inhibit cell growth in this assay is correlated with the reduction of dehydrogenase enzyme activity found in metabolically active cells. The measurement of the absorbance of the formazan was assessed using an ENVISION™ (Perkin Elmer) microplate reader at 492 nm. The calculated IC50 value is the concentration of the test compound that causes a 50% decrease in the absorbance.

MDA-MB-231 = experiment: MTS assay, MDA-MB-231; format: cell-based; conditions: Homo sapiens, MDA-MB-231, 72 h
Protocol: as §1

Compound | inhibition at 10 µM (Abl (T315I)) [%] | inhibition at 30 µM (FGFR2 (N549H)) [%] | inhibition at 10 µM (DLD-1) [%] | inhibition at 10 µM (MDA-MB-231) [%]
O=c1[nH][nH]c(-c2cn3c4c(cccc24)CCC3)c1-c1c[nH]c2ccccc12 [Compound 4, 5-(5,6-dihydro-4H-pyrrolo[3,2,1-ij]quinolin-1-yl)-4-(1H-indol-3-yl)-1,2-dihydro-3H-pyrazol-3-one] | 63 | 96 | – | –
O=c1[nH][nH]c(-c2ccccc2)c1-c1cn2c3c(cccc13)CCC2 [Compound 10, 4-(5,6-dihydro-4H-pyrrolo[3,2,1-ij]quinolin-1-yl)-5-phenyl-1,2-dihydro-3H-pyrazol-3-one] | 25 | – | 46 | 37
O=c1[nH][nH]c(-c2ccc(Cl)cc2)c1-c1cn2c3c(cccc13)CCC2 [Compound 11, 5-(4-chlorophenyl)-4-(5,6-dihydro-4H-pyrrolo[3,2,1-ij]quinolin-1-yl)-1,2-dihydro-3H-pyrazol-3-one] | 13 | – | 97 | 97
O=c1[nH][nH]c(-c2cc3ccccc3s2)c1-c1cn2c3c(cccc13)CCC2 [Compound 12, 5-(1-benzothien-2-yl)-4-(5,6-dihydro-4H-pyrrolo[3,2,1-ij]quinolin-1-yl)-1,2-dihydro-3H-pyrazol-3-one] | 53 | – | 87 | 90
Cc1ccc(-c2[nH][nH]c(=O)c2-c2cn3c4c(cccc24)CCC3)cc1 [Compound 16, 4-(5,6-dihydro-4H-pyrrolo[3,2,1-ij]quinolin-1-yl)-5-(4-methylphenyl)-1,2-dihydro-3H-pyrazol-3-one] | 83 | – | 78 | 63
O=c1[nH][nH]c(-c2ccc(Cl)cc2Cl)c1-c1cn2c3c(cccc13)CCC2 [Compound 17, 5-(2,4-dichlorophenyl)-4-(5,6-dihydro-4H-pyrrolo[3,2,1-ij]quinolin-1-yl)-1,2-dihydro-3H-pyrazol-3-one] | 81 | 48 | 40 | –
COc1ccc(-c2[nH][nH]c(=O)c2-c2cn3c4c(cccc24)CCC3)cc1 [Compound 18, 4-(5,6-dihydro-4H-pyrrolo[3,2,1-ij]quinolin-1-yl)-5-(4-methoxyphenyl)-1,2-dihydro-3H-pyrazol-3-one] | 9 | – | 72 | 59
O=c1[nH][nH]c(-c2cccc(F)c2)c1-c1cn2c3c(cccc13)CCC2 [Compound 21, 4-(5,6-dihydro-4H-pyrrolo[3,2,1-ij]quinolin-1-yl)-5-(3-fluorophenyl)-1,2-dihydro-3H-pyrazol-3-one] | 79 | 75 | – | –
CCOc1ccc2ccccc2c1-c1[nH][nH]c(=O)c1-c1cn2c3c(cccc13)CCC2 [Compound 22, 4-(5,6-dihydro-4H-pyrrolo[3,2,1-ij]quinolin-1-yl)-5-(2-ethoxy-1-naphthyl)-1,2-dihydro-3H-pyrazol-3-one] | 11 | 41 | – | –
O=C(Nc1ccccc1OC(F)F)N1CCC(CNc2nccc(-c3cn4c5c(cccc35)CCC4)n2)CC1 [Compound 50, N-(2-(difluoromethoxy)phenyl)-4-((4-(5,6-dihydro-4H-pyrrolo[3,2,1-ij]quinolin-1-yl)pyrimidin-2-ylamino)methyl)piperidine-1-carboxamide] | – | 55 | 55 | 53
COc1ccc(NC(=O)N2CCC(CNc3nccc(-c4cn5c6c(cccc46)CCC5)n3)CC2)c(OC)c1 [Compound 53, 4-((4-(5,6-dihydro-4H-pyrrolo[3,2,1-ij]quinolin-1-yl)pyrimidin-2-ylamino)methyl)-N-(2,4-dimethoxyphenyl)piperidine-1-carboxamide] | – | 48 | 98 | 95

The next lines start with results.

inhibition at 10 µM (Abl (T315I)) [%] | inhibition at 30 µM (FGFR2 (N549H)) [%] | Compound | inhibition at 10 µM (DLD-1) [%] | inhibition at 10 µM (MDA-MB-231) [%]
8 | – | CC(C)(C)Cc1[nH][nH]c(=O)c1-c1cn2c3c(cccc13)CCC2 [Compound 14, 4-(5,6-dihydro-4H-pyrrolo[3,2,1-ij]quinolin-1-yl)-5-(2,2-dimethylpropyl)-1,2-dihydro-3H-pyrazol-3-one] | 57 | 72
20 | 33 | O=c1[nH][nH]c(-c2ccccc2Cl)c1-c1cn2c3c(cccc13)CCC2 [Compound 15, 5-(2-chlorophenyl)-4-(5,6-dihydro-4H-pyrrolo[3,2,1-ij]quinolin-1-yl)-1,2-dihydro-3H-pyrazol-3-one] | – | –
77 | – | O=c1[nH][nH]c(C2CCCC2)c1-c1cn2c3c(cccc13)CCC2 [Compound 19, 5-cyclopentyl-4-(5,6-dihydro-4H-pyrrolo[3,2,1-ij]quinolin-1-yl)-1,2-dihydro-3H-pyrazol-3-one] | – | –
87 | 45 | O=c1[nH][nH]c(-c2ccccc2Br)c1-c1cn2c3c(cccc13)CCC2 [Compound 20, 5-(2-bromophenyl)-4-(5,6-dihydro-4H-pyrrolo[3,2,1-ij]quinolin-1-yl)-1,2-dihydro-3H-pyrazol-3-one] | – | –
8 | – | CC(C)c1[nH][nH]c(=O)c1-c1cn2c3c(cccc13)CCC2 [Compound 23, 4-(5,6-dihydro-4H-pyrrolo[3,2,1-ij]quinolin-1-yl)-5-isopropyl-1,2-dihydro-3H-pyrazol-3-one] | – | –
– | 52 | CC(=O)c1ccccc1NC(=O)N1CCC(CNc2nccc(-c3cn4c5c(cccc35)CCC4)n2)CC1 [Compound 51, N-(2-acetylphenyl)-4-((4-(5,6-dihydro-4H-pyrrolo[3,2,1-ij]quinolin-1-yl)pyrimidin-2-ylamino)methyl)piperidine-1-carboxamide] | 97 | 72
– | 46 | COc1ccccc1C(=O)N1CCC(CNc2nccc(-c3cn4c5c(cccc35)CCC4)n2)CC1 [Compound 54, (4-((4-(5,6-dihydro-4H-pyrrolo[3,2,1-ij]quinolin-1-yl)pyrimidin-2-ylamino)methyl)piperidin-1-yl)(2-methoxyphenyl)methanone] | 95 | 37
